In test [1] the test system is MCF7. The test can be described thus: Antiproliferative activity against human MCF7 cells after 48 hrs by MTT assay. The settings on record: MCF7, 48 h. The class given is functional, cell-based. (Tetrazolium dyes change colour on reduction, which living cells bring about.)
A further test deals with L02. The test can be described thus: Antiproliferative activity against human L02 cells after 48 hrs by MTT assay. The class given is functional, cell-based. Conditions: L02, 48 h.
The subject of another test is A549. The test can be described thus: Antiproliferative activity against human A549 cells after 48 hrs by MTT assay. The test is classed as functional, cell-based. The settings on record: A549, 48 h.
In test [2] the test system is NCI/ADR-RES. In words: Antiproliferative activity against human MCF7/ADR cells after 48 hrs by MTT assay. The class given is functional, cell-based.
The next test concerns MDA-MB-231. In words: Antiproliferative activity against human MDA-MB-231 cells after 48 hrs by MTT assay. The test is classed as functional, cell-based. Conditions: MDA-MB-231, 48 h.
The subject of a further test is HepG2. The test can be described thus: Antiproliferative activity against human HepG2 cells after 48 hrs by MTT assay. The test is classed as functional, cell-based. The settings on record: HepG2, 48 h.
Test [3] relates to NCI/ADR-RES. The test can be described thus: Reversal of multidrug resistant activity in human MCF7/ADR cells after 48 hrs by MTT assay. The test is classed as functional, cell-based.
The test system of test [4] is Calf thymus DNA. In words: Binding affinity to calf thymus DNA assessed as red shift in absorption spectra at 20 uM by UV-vis absorption spectroscopy. The test is classed as nucleic-acid assay. Conditions: Bos taurus.
In test [5] the test system is Calf thymus DNA. The test can be described thus: Binding affinity to calf thymus DNA assessed as hypochromicity at 20 uM measured by UV-vis absorption spectroscopy. Conditions: Bos taurus. The test is classed as nucleic-acid assay.
Test [6] concerns MCF7. The test can be described thus: Antiproliferative activity against human MCF7 cells assessed as growth inhibition at 3 uM after 48 hrs by MTT assay relative to control. The class given is functional. Conditions: read-out: GI.

Take `Cc1cn(CCCOc2ccc3c4c(nccc24)-c2ccccc2C3=O)cn1`: the IC50 (in general, the concentration needed to halve the response being measured) was 9.35 µM in the test with MCF7 [1]; 23.8 µM in the test with L02; 11.2 µM in the test with A549; 17.1 µM in the test on NCI/ADR-RES [2]; 12.1 µM in the test with MDA-MB-231; 12 µM in the test on HepG2.
As to `CC1CCCCN1CCCCOc1ccc2c3c(nccc13)-c1ccccc1C2=O` (stereo not drawn), the IC50 with MCF7 [1] was 9.95 µM; in the test on L02 it was 28.4 µM; in the test with A549 it was 8.46 µM; in the test on NCI/ADR-RES [2], 15.2 µM; in the test on NCI/ADR-RES [3], 1.82 µM; in the test with MDA-MB-231 it was 8.46 µM. The molecule also gave an IC50 with HepG2 of 10.1 µM. In the test on Calf thymus DNA [4], the OD amounted to 1.6 nm. In the test with Calf thymus DNA [5], the Activity came out at 22%. In addition, the inhibition of growth at 3 µM in the test on MCF7 [6] stood at 3.7%.
As for `Cc1cn(CCCCOc2ccc3c4c(nccc24)-c2ccccc2C3=O)cn1`, the IC50 was 9.42 µM with MCF7 [1]; 28.2 µM in the test with L02; 9.63 µM with A549; 13.6 µM in the test on NCI/ADR-RES [2]; 9.47 µM in the test on MDA-MB-231; 11.1 µM in the test on HepG2.
Take `O=C1c2ccccc2-c2nccc3c(OCCCn4ccnc4[N+](=O)[O-])ccc1c23`: the IC50 in the test with MCF7 [1] is 10.1 µM; with L02 it was 39.6 µM; with A549, 10.3 µM; with NCI/ADR-RES [2], 16.7 µM; with MDA-MB-231 it was 12 µM; in the test with HepG2, 13.1 µM.
As for `O=C1c2ccccc2-c2nccc3c(OCCCn4cnc([N+](=O)[O-])c4)ccc1c23`, the IC50 in the test on MCF7 [1] came out at 9.03 µM; with L02, 21.1 µM; in the test on A549, 9.73 µM; in the test on NCI/ADR-RES [2], 18.4 µM; in the test with MDA-MB-231, 8.29 µM; with HepG2, 10.5 µM.
`O=C1c2ccccc2-c2nccc3c(OCCCN4CCOCC4)ccc1c23`: the IC50 was 7.58 µM with MCF7 [1]; 32.4 µM in the test with L02; 9.23 µM in the test on A549; 14.6 µM in the test with NCI/ADR-RES [2]; 1.81 µM in the test on NCI/ADR-RES [3]; 9.52 µM in the test on MDA-MB-231. For the same molecule, half-maximal inhibition with HepG2 (IC50) was put at 10.3 µM. For the same molecule, the inhibition of growth at 3 µM in the test with MCF7 [6] came out at 3.73%.
As for `CN1CCN(CCOc2ccc3c4c(nccc24)-c2ccccc2C3=O)CC1`, the IC50 in the test on MCF7 [1] is 6.01 µM; with L02, 22.4 µM; with A549, 7.26 µM; with NCI/ADR-RES [2], 13.2 µM; with NCI/ADR-RES [3], 2.9 µM; in the test on MDA-MB-231 it was 9.33 µM. Moreover, in the test with HepG2, the midpoint of inhibition, the IC50, lay at 8.19 µM. Also, the inhibition of growth at 3 µM in the test on MCF7 [6] came to 9.48%.
Consider `O=C1c2ccccc2-c2nccc3c(OCCCCn4ccnc4[N+](=O)[O-])ccc1c23`, for which the IC50 with MCF7 [1] turned out to be 9.78 µM; in the test on L02 it was 37.3 µM; in the test on A549, 10.6 µM; with NCI/ADR-RES [2], 13.5 µM; in the test on MDA-MB-231, 10 µM; in the test with HepG2, 10.9 µM.
Take `CN1CCN(CCCCOc2ccc3c4c(nccc24)-c2ccccc2C3=O)CC1`: the IC50 was 8.67 µM in the test with MCF7 [1]; above 50 µM in the test with L02; 11.1 µM in the test with A549; 13.2 µM with NCI/ADR-RES [2]; 1.8 µM with NCI/ADR-RES [3]; 11.1 µM in the test on MDA-MB-231. Moreover, the midpoint of inhibition in the test with HepG2, the IC50, lay at 11.9 µM. Besides, the inhibition of growth at 3 µM in the test on MCF7 [6] turned out to be 6.68%.
Turning to `O=C1c2ccccc2-c2nccc3c(OCCCCn4cnc([N+](=O)[O-])c4)ccc1c23`, the IC50 with MCF7 [1] was 9.34 µM; in the test with L02 it was above 50 µM; in the test with A549 it was 12.2 µM; with NCI/ADR-RES [2] it was 18.3 µM; with MDA-MB-231, 11.4 µM; with HepG2, 14.3 µM.
Consider `N#Cc1ncn(CCCCOc2ccc3c4c(nccc24)-c2ccccc2C3=O)c1C#N`, for which the IC50 in the test with MCF7 [1] amounted to 10.2 µM; in the test with L02, 26.8 µM; in the test on A549, 6.17 µM; in the test with NCI/ADR-RES [2] it was 10.1 µM; in the test on MDA-MB-231, 7.34 µM; in the test on HepG2, 8.42 µM.
With `O=C1c2ccccc2-c2nccc3c(OCCCCN4CCOCC4)ccc1c23`, the IC50 worked out at 8.46 µM with MCF7 [1]; 22.9 µM in the test on L02; 9.63 µM in the test on A549; 19.3 µM in the test with NCI/ADR-RES [2]; 6.12 µM in the test on NCI/ADR-RES [3]; 9.43 µM in the test on MDA-MB-231. In the test with HepG2, this molecule displayed an IC50 of 10.3 µM. In addition, the inhibition of growth at 3 µM in the test with MCF7 [6] was determined as 17.4%.
As to `O=C1c2ccccc2-c2nccc3c(OCCN4CCOCC4)ccc1c23`, the IC50 in the test on MCF7 [1] was 6.01 µM; with L02 it was above 50 µM; in the test on A549 it was 6.37 µM; in the test on NCI/ADR-RES [2], 11.2 µM; in the test with NCI/ADR-RES [3], 10.1 µM; with MDA-MB-231, 8.48 µM. Also, in the test on HepG2, the IC50 worked out at 8.07 µM. Moreover, the inhibition of growth at 3 µM in the test on MCF7 [6] is 8.33%.
For the molecule `O=C1c2ccccc2-c2nccc3c(OCCCCn4cnc(Br)c4)ccc1c23`, the IC50 is 7.95 µM in the test with MCF7 [1]; 32.3 µM with L02; 8.53 µM with A549; 12.1 µM in the test with NCI/ADR-RES [2]; 10.2 µM with MDA-MB-231; 7.46 µM with HepG2.
In the case of `CC1CCCCN1CCCOc1ccc2c3c(nccc13)-c1ccccc1C2=O` (stereo not drawn), the IC50 came out at 8.32 µM in the test on MCF7 [1]; 19.5 µM with L02; 7.48 µM in the test with A549; 16.2 µM with NCI/ADR-RES [2]; 0.39 µM in the test with NCI/ADR-RES [3]; 7.94 µM with MDA-MB-231. The same molecule yielded an IC50 with HepG2 of 6.56 µM. In addition, the OD in the test with Calf thymus DNA [4] was determined as 2 nm. The Activity with Calf thymus DNA [5] amounted to 28.5%. Besides, the inhibition of growth at 3 µM in the test on MCF7 [6] amounted to 19.7%.
Turning to `O=C1c2ccccc2-c2nccc3c(OCCCn4cnc(Br)c4)ccc1c23`, the IC50 in the test with MCF7 [1] was found to be 6.09 µM; with L02 it was 36.8 µM; in the test with A549, 8.95 µM; in the test on NCI/ADR-RES [2], 11.2 µM; with MDA-MB-231, 8.61 µM; with HepG2, 8.12 µM.
As for `N#Cc1ncn(CCCCCOc2ccc3c4c(nccc24)-c2ccccc2C3=O)c1C#N`, the IC50 with MCF7 [1] stood at 7.65 µM; with L02, 31.1 µM; with A549, 5.88 µM; in the test on NCI/ADR-RES [2] it was 10.1 µM; with MDA-MB-231 it was 7.39 µM; in the test with HepG2, 7.29 µM.
As to `O=C1c2ccccc2-c2nccc3cccc1c23`, the IC50 in the test on MCF7 [1] is 24 µM; in the test with L02, above 50 µM; in the test with A549 it was 26.2 µM; in the test on NCI/ADR-RES [2] it was 40.9 µM; in the test on MDA-MB-231, 32.2 µM; with HepG2, 28.2 µM.
Consider `O=C1c2ccccc2-c2nccc3c(OCCCCCn4ccnc4[N+](=O)[O-])ccc1c23`, for which the IC50 was found to be 9.29 µM in the test on MCF7 [1]; 30.2 µM in the test with L02; 6.09 µM with A549; 10.2 µM with NCI/ADR-RES [2]; 7.18 µM in the test with MDA-MB-231; 8.13 µM in the test on HepG2.
Consider `CN1CCN(CCCOc2ccc3c4c(nccc24)-c2ccccc2C3=O)CC1`, for which the IC50 is 7.46 µM in the test with MCF7 [1]; 25.9 µM in the test on L02; 10 µM with A549; 18.3 µM in the test with NCI/ADR-RES [2]; 11.4 µM in the test with NCI/ADR-RES [3]; 10.5 µM with MDA-MB-231. In the test with HepG2, the IC50 was 9.67 µM. Moreover, the inhibition of growth at 3 µM in the test with MCF7 [6] stood at 8.89%.
On to `COc1ccc(CCN(C)CCCC(C#N)(c2ccc(OC)c(OC)c2)C(C)C)cc1OC` (stereo not drawn), for which the 50% inhibitory concentration (IC50) in the test on NCI/ADR-RES [3] stood at 2.83 µM.
As for `O=C1c2ccccc2-c2nccc3c(OCCCCCn4cnc([N+](=O)[O-])c4)ccc1c23`, the IC50 is 10 µM in the test on MCF7 [1]; 23.8 µM in the test with L02; 7.36 µM in the test with A549; 11.5 µM with NCI/ADR-RES [2]; 8.29 µM in the test with MDA-MB-231; 8.67 µM in the test with HepG2.
In the case of `COc1cccc2c1C(=O)c1c(O)c3c(c(O)c1C2=O)C[C@@](O)(C(=O)CO)C[C@@H]3O[C@H]1C[C@H](N)[C@H](O)[C@H](C)O1` [DOXORUBICIN], the IC50 with L02 was 0.18 µM.

These data come from ChEMBL document CHEMBL5154818, “Development of oxoisoaporphine derivatives with topoisomerase I inhibition and reversal of multidrug resistance in breast cancer MCF-7/ADR cells” (Eur J Med Chem, 2022).
